Test results as given in patent US7423054B2, “Therapeutic pyrazolo[3,4-b]pyridines and indazoles” (Warner Lambert Company LLC, priority 2004, dated 2008).
Where a name gives a salt, the structure may show the parent alone. Read-outs that look alike come from different tables or passages of the source.

Legend:
[1] = biological target: T1, human norepinephrine transporter (hNET) (Homo sapiens, UniProt P23975); assay: hNET receptor binding ([125I]-RTI-55 displacement, membranes of transfected HEK-293 cells); conditions: HEK-293 membranes, Ki from IC50 by Cheng-Prusoff, read-out: NET Ki
T1 construct: expressed in transfected cells; host or cells: HEK-293 cells (membrane preparation)
T1 sequence (P23975 whole entry): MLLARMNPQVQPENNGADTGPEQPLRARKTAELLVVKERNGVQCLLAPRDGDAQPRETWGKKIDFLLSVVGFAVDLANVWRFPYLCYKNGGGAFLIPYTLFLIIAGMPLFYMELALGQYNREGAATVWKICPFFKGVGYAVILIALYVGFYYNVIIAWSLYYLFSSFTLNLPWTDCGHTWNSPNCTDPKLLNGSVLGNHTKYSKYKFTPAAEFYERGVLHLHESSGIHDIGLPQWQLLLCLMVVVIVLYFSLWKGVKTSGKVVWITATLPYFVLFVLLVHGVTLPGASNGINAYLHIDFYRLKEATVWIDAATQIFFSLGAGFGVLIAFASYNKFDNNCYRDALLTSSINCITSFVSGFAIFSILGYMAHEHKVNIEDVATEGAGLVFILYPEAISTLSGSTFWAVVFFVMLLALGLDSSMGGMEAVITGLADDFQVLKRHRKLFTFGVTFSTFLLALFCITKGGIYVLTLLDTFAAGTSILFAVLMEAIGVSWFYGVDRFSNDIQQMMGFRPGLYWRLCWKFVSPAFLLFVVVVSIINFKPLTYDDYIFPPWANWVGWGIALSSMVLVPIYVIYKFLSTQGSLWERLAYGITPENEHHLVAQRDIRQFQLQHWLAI
In short: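 Membranes from HEK-293 cells expressing human NET were incubated 90 min at room temperature with 50 pM [125I]-RTI-55 and compound (10^−5 to 10^−12 M) in Krebs-HEPES buffer, pH 7.4. Bound radioligand was counted after filtration, with nonspecific binding defined by 10 μM desipramine. IC50 was converted to Ki by Cheng-Prusoff.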

[2] = biological target: T2, human serotonin transporter (hSERT) (Homo sapiens, UniProt P31645); assay: hSERT receptor binding ([125I]-RTI-55 displacement, membranes of transfected HEK-293 cells); conditions: HEK-293 membranes, Ki from IC50 by Cheng-Prusoff, read-out: SERT Ki
T2 construct: expressed in transfected cells; host or cells: HEK-293 cells (membrane preparation)
T2 sequence (P31645 whole entry): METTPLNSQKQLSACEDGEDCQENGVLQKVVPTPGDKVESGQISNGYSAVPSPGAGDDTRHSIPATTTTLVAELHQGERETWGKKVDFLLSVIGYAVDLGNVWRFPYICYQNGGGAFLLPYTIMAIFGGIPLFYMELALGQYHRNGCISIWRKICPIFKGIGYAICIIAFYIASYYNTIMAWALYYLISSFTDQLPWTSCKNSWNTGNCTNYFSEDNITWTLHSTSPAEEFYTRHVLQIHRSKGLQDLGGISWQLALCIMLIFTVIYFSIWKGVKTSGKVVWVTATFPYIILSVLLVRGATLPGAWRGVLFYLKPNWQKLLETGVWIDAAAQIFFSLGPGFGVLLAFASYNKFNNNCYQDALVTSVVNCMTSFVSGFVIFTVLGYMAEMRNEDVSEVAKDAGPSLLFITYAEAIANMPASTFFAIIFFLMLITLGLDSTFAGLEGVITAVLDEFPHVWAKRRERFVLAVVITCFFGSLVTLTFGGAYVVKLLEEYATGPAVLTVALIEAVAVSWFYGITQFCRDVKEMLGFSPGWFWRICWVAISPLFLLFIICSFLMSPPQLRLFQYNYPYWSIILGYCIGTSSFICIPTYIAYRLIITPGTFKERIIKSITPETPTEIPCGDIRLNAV
In short: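 Membranes from HEK-293 cells expressing human SERT were incubated 90 min at room temperature in Krebs-HEPES (pH 7.4) with 50 pM [125I]-RTI-55 and compound (10^-12 to 10^-5 M), in duplicate. Nonspecific binding was defined with 10 μM citalopram. Ki from IC50 by Cheng-Prusoff.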

[3] = tested on: capsaicin-induced mechanical allodynia; assay: Rat model of capsaicin-induced mechanical allodynia (paw withdrawal threshold, Von Frey); assay type: in vivo; conditions: for inhibition in vivo at 10 mg/kg: Rattus norvegicus, po, 2 h, read-out: % inhibition +/− SEM
Description: In certain embodiments, the compounds of formula I may be assayed for their ability to alleviate capsaicin-induced mechanical allodynia in a rat (e.g., Sluka, K A, (2002) J of Neuroscience, 22(13): 5687-5693). For example, a rat model of capsaicin-induced mechanical allodynia) can be carried out as follows:
On day 0, male Sprague-Dawley rats (˜150 g) in the dark cycle are placed in suspended wire-bottom cages and allowed to acclimate for 0.5 h in a darkened, quiet room. The day 0 paw withdrawal threshold (PWT) is determined on the left hind paw by Von Frey hair assessment using the Dixon up and down method. After assessment, the plantar muscle of the right hind paw is injected with 100 μl capsaicin (0.25% in 10% ethanol, 10% Tween 80, in sterile saline). On day 6 the PWT of the left hindpaw (contralateral from injection site) is determined for each animal. Animals from the day 6 prereads with PWT≦11.7 g are considered allodynic responders and are regrouped so that each cage had similar mean PWT values. On day 7, responders are dosed (e.g., orally, intraperitoneally, and subcutaneously, etc.) with 10 ml/kg vehicle (0.5% HPMC(hydroxy-propylmethylcellulose)/0.2% Tween™ 80), or vehicle plus compound. The contralateral PWT values are determined at 2 hours (or at about the time corresponding to the estimated Cmax) after the single dose, with the investigator blinded to the dosing scheme. Those of skill in the art can determine the appropriate time to determine the contralateral PWT value (e.g., 1 hour, 2 hours, etc.).
For each animal, the day 6 PWT value is subtracted from the 2 hour PWT value to give a delta PWT value that represents the change in PWT due to the 2 hour drug treatment. In addition, the day 6 PWT is subtracted from the day 0 PWT to give the baseline window of allodynia present in each animal. To determine % inhibition of allodynia of each animal normalized for vehicle controls, the following formula is used: % Inhibition of Allodynia=100×(Delta PWT(drug)−mean Delta PWT(vehicle))/(Baseline−mean Delta PWT(vehicle)). Pharmaceutically Acceptable Salts and Solvates
Compounds of the present invention may be assayed for their ability to alleviate capsaicin-induced mechanical allodynia in a rat model (e.g., Sluka (2002) J of Neuroscience, 22(13)5687-5693). For example, a rat model of capsaicin-induced mechanical allodynia was carried out as follows:
On day 0, male Sprague-Dawley rats (˜150 g) in the dark cycle were placed in suspended wire-bottom cages and allowed to acclimate for 0.5 hour in a darkened, quiet room. The day 0 paw withdrawal threshold (PWT) was determined on the left hind paw by Von Frey hair assessment using the Dixon up and down method. After assessment, the plantar muscle of the right hind paw was injected with 100 μl capsaicin (0.25% (w/v) in 10% ethanol, 10% Tween 80, in sterile saline). On day 6 the PWT of the left hindpaw (contralateral from injection site) was determined for each animal. Animals from the day 6 prereads with PWT≦11.7 g were considered allodynic responders and were regrouped so that each cage had similar mean PWT values.
On day 7, responders were dosed subcutaneously with 30 mg of the compound of Example 7/kg body weight, 10 mg of the compound of the compound of Example 48/kg body weight, or with vehicle alone. The vehicle was phosphate buffered saline containing 2% Cremophor®) EL (BASF).
For the animals dosed with the compound of Example 7, the contralateral PWT values were determined at 2 hour after the single dose, with the investigator blinded to the dosing scheme.
For each animal, the day 6 PWT value was subtracted from the 2 hour PWT value for the 10 mg/kg doses to give a delta PWT value that represents the change in PWT due to the […] drug treatment. In addition, the day 6 PWT was subtracted from the day 0 PWT to give the baseline window of allodynia present in each animal. […]

[4] = male Sprague-Dawley rats, oral single dose 10 mg/kg, contralateral PWT at 2 hours after dose, mean of eight animals

Compound | Ki [1] [nM] | Ki [2] [nM] | inhibition in vivo at 10 mg/kg [3, 4] [%] | inhibition in vivo at 10 mg/kg [3] [%] | % Inhibition of Allodynia +/− SEM ([3]; male Sprague-Dawley rats, subcutaneous single dose 30 mg/kg, contralateral PWT at 2 hour after dose, mean of eight animals)
Fc1ccc(F)c(-n2nc(OCC3CCCNC3)c3ccccc32)c1 (racemic) [Example 31, (±)-1-(2,5-Difluoro-phenyl)-3-(piperidin-3-ylmethoxy)-1H-indazole hydrochloride] | 6.58 | 134 | 47 | – | –
Fc1ccc2c(c1)c(OCC1CCCNC1)nn2-c1ccccc1F (racemic) [Example 57, (±)-5-Fluoro-1-(2-fluoro-phenyl)-3-(piperidin-3-ylmethoxy)-1H-indazole hydrochloride] | 18.1 | 52.2 | 26 | – | –
Fc1ccccc1-n1nc(OC2CCNCC2)c2ccccc21 [Example 1, 1-(2-Fluorophenyl)-3-(piperidin-4-yloxy)-1H-indazole hydrochloride] | 3.14 | 51.1 | – | 67.7 | –
Cl.Fc1ccccc1-n1nc(OC[C@H]2CCNC2)c2ccccc21 [Example 7, (S)-(−)-1-(2-Fluorophenyl)-3-(pyrrolidin-3-ylmethoxy)-1H-indazole hydrochloride] | 5.3 | 54.7 | 12.2 | – | 71.5 +/− 4.6%
Fc1ccc(-n2nc(OC[C@H]3CCNC3)c3ccccc32)c(F)c1 [Example 8, (S)-1-(2,4-Difluoro-phenyl)-3-(pyrrolidin-3-ylmethoxy)-1H-indazole hydrochloride] | 5.19 | 39 | 11.5 | – | –
Fc1ccc(-n2nc(OC[C@@H]3CCNC3)c3ccccc32)c(F)c1 [Example 9, (R)-1-(2,4-Difluoro-phenyl)-3-(pyrrolidin-3-ylmethoxy)-1H-indazole hydrochloride] | 5.63 | 81.6 | 34.1 | – | –
c1ccc(-n2nc(OC[C@@H]3CCNC3)c3ccccc32)cc1 [Example 14, (R)-1-Phenyl-3-(pyrrolidin-3-ylmethoxy)-1H-indazole hydrochloride] | 13.1 | 100 | 30.8 | – | –
c1ccc(-n2nc(OC3CCNCC3)c3ccccc32)cc1 [Example 20, 1-Phenyl-3-(piperidin-4-yloxy)-1H-indazole hydrochloride] | 20.2 | 122 | 41.1 | – | –
Fc1ccc(F)c(-n2nc(OC3CCNCC3)c3ccccc32)c1 [Example 27, 1-(2,5-Difluoro-phenyl)-3-(piperidin-4-yloxy)-1H-indazole hydrochloride] | 6.34 | 42.3 | 27 | – | –
Fc1ccc(F)c(-n2nc(OC[C@@H]3CCNC3)c3ccccc32)c1 [Example 30, (R)-1-(2,5-Difluoro-phenyl)-3-(pyrrolidin-3-ylmethoxy)-1H-indazole hydrochloride] | 4.44 | 64.6 | 68 | – | –
Fc1ccc(-n2nc(OC[C@@H]3CNCCO3)c3c(F)cccc32)c(F)c1 [Example 94, (S)-1-(2,4-Difluoro-phenyl)-4-fluoro-3-(morpholin-2-ylmethoxy)-1H-indazole hydrochloride] | 40.2 | 2850 | – | – | –
Fc1ccc(F)c(-n2nc(OC[C@@H]3CNCCO3)c3c(F)cccc32)c1 [Example 95, (S)-1-(2,5-Difluoro-phenyl)-4-fluoro-3-(morpholin-2-ylmethoxy)-1H-indazole hydrochloride] | 5.47 | 3470 | – | – | –
Fc1ccc2c(c1)c(OC1CCNCC1)nn2-c1ccc(F)c(F)c1 [Example 97, 1-(3,4-Difluoro-phenyl)-5-fluoro-3-(piperidin-4-yloxy)-1H-indazole hydrochloride] | 28.5 | 39.5 | – | – | –
Fc1ccccc1-n1nc(OC[C@@H]2CNCCO2)c2c(F)cccc21 [Example 98, (S)-(+)-4-Fluoro-1-(2-fluorophenyl)-3-(morpholin-2-ylmethoxy)-1H-indazole maleate] | 27.3 | 3860 | – | – | –
Fc1ccc2c(c1)c(OCC1CCCNC1)nn2-c1ccccn1 (stereo not shown) [Example 99, 5-Fluoro-3-(piperidin-3-ylmethoxy)-1-pyridin-2-yl-1H-indazole hydrochloride] | 319 | 259 | – | – | –
Clc1ccc2c(c1)c(OC1CCNCC1)nn2-c1ccccc1 [Example 101, 5-Chloro-1-phenyl-3-(piperidin-4-yloxy)-1H-indazole hydrochloride] | 607 | 304 | – | – | –
Fc1ccccc1-n1nc(OC2CCNCC2)c2cc(Cl)ccc21 [Example 102, 5-Chloro-1-(2-fluoro-phenyl)-3-(piperidin-4-yloxy)-1H-indazole hydrochloride] | 71.5 | 129 | – | – | –
Fc1cccc2c1c(OC1CCNCC1)nn2-c1ccccc1 [Example 103, 4-Fluoro-1-phenyl-3-(piperidin-4-yloxy)-1H-indazole hydrochloride] | 34.1 | 293 | – | – | –
c1ccc(-n2nc(OC[C@H]3CCCNC3)c3cccnc32)cc1 [Example 104, (S)-(−)-1-Phenyl-3-(piperidin-3-ylmethoxy)-1H-pyrazolo[3,4-b]pyridine hydrochloride] | 89 | 1580 | – | – | –
c1ccc(-n2nc(OC[C@@H]3CNCCO3)c3cccnc32)cc1 [Example 105, (S)-(+)-3-(Morpholin-2-ylmethoxy)-1-phenyl-1H-pyrazolo[3,4-b]pyridine hydrochloride] | 294 | 4240 | – | – | –
Fc1ccc2c(c1)c(OC1CCNCC1)nn2-c1c(F)cccc1F [Example 108, 1-(2,6-Difluoro-phenyl)-5-fluoro-3-(piperidin-4-yloxy)-1H-indazole hydrochloride] | 5.72 | 43 | – | – | –
Fc1cccc(F)c1-n1nc(OC2CCNCC2)c2c(F)cccc21 [Example 109, 1-(2,6-Difluoro-phenyl)-4-fluoro-3-(piperidin-4-yloxy)-1H-indazole hydrochloride] | 46.2 | 279 | – | – | –
Fc1cccc(F)c1-n1nc(OC[C@H]2CCCNC2)c2c(F)cccc21 [Example 110, (S)-1-(2,6-Difluorophenyl)-4-fluoro-3-(piperidin-3-ylmethoxy)-1H-indazole hydrochloride] | 16.3 | 422 | – | – | –
(S)-1-(2,6-Difluoro-phenyl)-3-(morpholin-2-ylmethoxy)-1H-indazole hydrochloride [Example 24] | 9.65 | 5430 | – | – | –
(S)-(−)-5-Fluoro-1-(2-fluorophenyl)-3-(piperidin-3-ylmethoxy)-1H-indazole hydrochloride [Example 47] | 13 | 47 | – | – | –
